One series has as its system adult male rats. Put plainly: Postincisional hypersensitivity model of postoperative pain (paw incision, withdrawal threshold to von Frey filaments). Type of series: in vivo, rat. To be noted: intrathecal (i.t.), 24 h after paw incision surgery. The method, then: Animal preparation: Following Animal Care and Use Committee approval, an intrathecal (i.t.) catheter with tip in the lumbar space is inserted as previously described in adult male rats weighing 250 g (Yaksh and Rudy, Physiol Behav. 1976, 7, 1032-1036). One week following the insertion of the i.t. catheter, paw incision surgery is performed as previously described (Brennan et al., Pain 1996, 64, 493-501). Briefly, animals are anesthetized with halothane, and a 1-cm long incision is made in the plantar aspect of the left hind paw starting 0.5 cm from the edge of the heel toward the toe after sterile preparation with 70% ethanol. The plantaris muscle is elevated and incised longitudinally. The wound is closed with 2 mattress sutures of 5.0 silk. Subsequently, withdrawal threshold to von Frey filaments is determined one day after surgery (Chaplan et al., J. Neurosci. Methods, 1994, 53, 55-63). For all testing but pilot dose ranging studies, investigators are blinded to study drug administration. A cut off value of 22 g is used. […]
Single drug injection: For single drug administration, a volume containing 5 μL drug is used, followed by 10 μL of saline. […] Dose response curves are first constructed, and ED40 values for single drugs are then determined at the time of peak effect.
Drug interaction: For the combination of T-62 with morphine and NBQX, two injections are performed since the time of peak effect for morphine and NBQX is 30 min earlier than that of T-62 (T-62 is injected 30 min before drug injections). Paw withdrawal thresholds are determined before surgery, before drug injection, and 30, 60, 90, 120, 150, 180, and 210 min after the second drug injection. […] The dose response curves are then constructed for the combined drugs, and the ED40 values of the combined drugs are calculated at the time point of peak effect. […]
Data analysis: Data are presented as mean ±S.E. Withdrawal threshold data are analyzed by two-way analysis of variance followed by Fisher's LSD test. […] Isobolograms are statistically analyzed by student T test.

In a further series the test system is male Sprague-Dawley rats. Nature of the series: Neuropathic pain model (Chung model, spinal nerve ligation, withdrawal threshold to von Frey filaments). Type of series: in vivo, rat. The conditions noted are these: Chung model of chronic neuropathic pain, FIG. 8; for anti-allodynic effects: intrathecal single injection. The source says: Spinal Nerve Ligation: After Animal Care and Use Committee approval, male Sprague-Dawley rats (Harlan, Indianapolis, Ind., USA) weighing 180-200 g undergo anesthesia as previously described by Kim and Chung (Pain 1992, 50, 355-363). Briefly, under general anesthesia with inhalational halothane, the left L5 and L6 spinal nerves are identified through a small laminotomy and tightly ligated. Approximately one week later, an intrathecal catheter is placed under general anesthesia by insertion under direct vision of a polyethylene catheter through a small slit in the dura at the cisterna magnum, and advanced 8.5 cm such that the catheter tip resides in the lower lumbar intrathecal space. Animals are studied approximately one week later. Ligation of the lumbar spinal nerves results in a primarily unilateral increase in the sensitivity to light touch on the operated side. Sensitivity is assessed via application of calibrated von Frey filaments. The withdrawal threshold is determined using an up down method as previously described by Chaplan et al. (J. Neurosci. Methods 1994, 53, 55-63).
Experimental Design: Animals receive, at least 4 weeks after spinal nerve ligation surgery, and at least 1 week after intrathecal catheter insertion, single injections of vehicle (β-cyclodextrin) or the drug substance, using a randomized and blinded protocol. Withdrawal thresholds are determined at intervals for up to 20 hr after injection.

For series [1] the following is noted: cited from earlier work.

Consider 5 molecules from patent publication US20080108622A1, “COMBINATION THERAPY FOR THE TREATMENT OF PAIN” (priority 2006, published 2008).

The structures appear in SMILES notation. “Also recorded” adds a separate entry of the source.

Regarding `CN1CC[C@]23c4c5ccc(O)c4O[C@H]2[C@@H](O)C=C[C@H]3[C@H]1C5` [Morphine, morphine, reference compound], the “anti-hypersensitivity effect (reduction of mechanical hypersensitivity)” value with adult male rats was “reduces mechanical hypersensitivity in a time and dose dependent manner”.
For `Nc1sc2c(c1C(=O)c1ccc(Cl)cc1)CCCC2` [T-62, (2-amino-4,5,6,7-tetrahydrobenzo[b]thiophen-3-yl)(4-chlorophenyl)methanone], the anti-allodynic effects entry in the series on male Sprague-Dawley rats is on record as “dose-dependent anti-allodynic effects”. Further, in the series with adult male rats, the “anti-hypersensitivity effect (reduction of mechanical hypersensitivity)” value is on record as “reduced mechanical hypersensitivity in a time dependent manner; also recorded: modest effect”. In addition, the “effect on inflammatory and neuropathic pain” value in series [1] (literature (Li et al. 2003, Li et al. 2002, Pan et al. 2001; US 6,248,774, US 6,489,356)) is “reduce inflammatory and neuropathic pain”. For the same molecule, the oral efficacy result in series [1] (literature) is listed as “orally effective”. Also, the adverse side effects result in series [1] (literature, compared with administration of adenosine) is given as “avoid of the adverse side effects associated with administration of adenosine”.
As to `Nc1sc2c(c1C(=O)c1ccccc1)CCS2` [formula (Ib)], in the series on male Sprague-Dawley rats, the anti-allodynic effects entry is reported as “dose-dependent anti-allodynic effects”.
For `Nc1sc2c(c1C(=O)c1cccc3ccccc13)CCC2` [formula (Ic)], in the series on male Sprague-Dawley rats, the “relative potency among the three enhancers” value is on record as “most potent enhancer of the three agents” and the anti-allodynic effects result was “dose-dependent anti-allodynic effects”.
On to `NS(=O)(=O)c1cccc2c1c([N+](=O)[O-])cc1nc(O)c(O)nc12` [NBQX, 2,3-dihydroxy-6-nitro-7-sulfamoylbenzo(f)quinoxaline, reference compound], for which, in the series with adult male rats, the “anti-hypersensitivity effect (reduction of mechanical hypersensitivity)” value is “reduces the mechanical hypersensitivity in a time and dose dependent manner”.
